Measured values as given in ChEMBL document CHEMBL5543155, “Design, Synthesis, and Biological Evaluation of β-Trifluoroethoxydimethyl Selenides as Potent Antiosteoporosis Agents” (J Med Chem, 2024).
Activity calls are given as the source filed them. No cut-off for these calls is given here.

Tests used:
RAW264.7 [1] = test: Cytotoxicity against mouse RAW264.7 cells assessed as cell destruction at 5 uM incubated for 48 hrs by MTT assay; type: toxicity, cell-based; details: raw264.7, 48 h
[2] = target: T1, NF-kappa-B inhibitor alpha (Mus musculus) (UniProt Q9Z1E3); test: Inhibition of RANKL-induced IkappaBalpha degradation in C57BL/6 mouse BMMC cells at 5 uM pretreated for 6 hrs followed by RANKL stimulation and measured upto 60 mins by Western blot analysis; type: cell-based; details: time <= 7.0 hrs
T1 sequence (whole entry): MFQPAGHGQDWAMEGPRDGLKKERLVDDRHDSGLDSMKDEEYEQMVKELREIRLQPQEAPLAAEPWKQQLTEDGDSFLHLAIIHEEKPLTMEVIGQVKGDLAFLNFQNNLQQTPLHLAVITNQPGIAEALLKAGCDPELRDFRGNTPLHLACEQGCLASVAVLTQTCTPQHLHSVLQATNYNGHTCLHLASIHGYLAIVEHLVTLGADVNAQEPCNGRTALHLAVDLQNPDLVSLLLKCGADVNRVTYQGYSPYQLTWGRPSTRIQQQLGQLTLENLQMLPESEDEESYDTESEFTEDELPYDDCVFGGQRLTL

[3] = target: Transcription factor p65 (Mus musculus) (UniProt Q04207); test: Inhibition of p65 phosphorylation in RANKL-induced C57BL/6 mouse BMMC cells at 5 uM pretreated for 6 hrs followed by RANKL stimulation and measured upto 60 mins by Western blot analysis; type: cell-based; details: time <= 7.0 hrs
BMMC [4] = test: Effect on total p65 protein expression in RANKL-induced C57BL/6 mouse BMMC cells at 5 uM pretreated for 6 hrs followed by RANKL stimulation and measured upto 60 mins by Western blot analysis; type: functional, cell-based; details: time <= 7.0 hrs
[5] = target: T1, NF-kappa-B inhibitor alpha (Mus musculus); test: Inhibition of RANKL-induced IkappaBalpha phosphorylation in C57BL/6 mouse BMMC cells at 5 uM pretreated for 6 hrs followed by RANKL stimulation and measured upto 60 mins by Western blot analysis; type: cell-based; details: time <= 7.0 hrs
Mus musculus [6] = test: Anti-osteoporosis activity in ovariectomized C57BL/6 mouse assessed as reduction in bone loss at 10 mg/kg, ip administered every other day for 8 weeks by H and E staining based analysis; type: functional, organism-based
Mus musculus [7] = test: Anti-osteoporosis activity in ovariectomized C57BL/6 mouse assessed as reduction in bone loss by measuring decrease in trabecular spacing at 10 mg/kg, ip administered every other day for 8 weeks by micro-CT analysis; type: functional, organism-based
BMMC [8] = test: Anti-osteoclastogenesis activity in M-CSF/RANKL-induced C57BL/6 mouse BMMC cells cultured in hydroxyapatite-coated plates assessed as reduction in bone resorbed area per osteoclast incubated for 4 days by microscopic analysis; type: functional, cell-based; details: dose 2.5-10 µM, time 4.0 day
BMMC [9] = test: Anti-osteoclastogenesis activity in M-CSF/RANKL-induced C57BL/6 mouse BMMC cells assessed as downregulation of cathepsin K gene expression incubated for 5 days by qRT-PCR analysis; type: functional, cell-based; details: dose 0-10 µM, time 5.0 day
[10] = Toxicity in OVX osteoporotic C57BL/6 mouse assessed as effect on size and surface gloss of spleen at 10 mg/kg, ip administered every other day for 8 weeks by H and E staining based analysis; type: organism-based; details: in vivo, 1344 h
BMMC [11] = test: Anti-osteoclastogenesis activity in M-CSF/RANKL-induced C57BL/6 mouse BMMC cells assessed as reduction in number of TRAP-positive osteoclasts at 0 to 10 uM incubated for 6 days with media replacement for every 2 days by TRAP-staining based light microscopic analysis; type: functional, cell-based; details: dose 0-10 µM, time 6.0 day
[12] = target: c-Jun N-terminal kinase (Mus musculus) (UniProt Q91Y86+Q9WTU6+Q61831); test: Inhibition of JNK phosphorylation in RANKL-induced C57BL/6 mouse BMMC cells at 5 uM pretreated for 6 hrs followed by RANKL stimulation and measured upto 60 mins by Western blot analysis; type: cell-based; details: time <= 7.0 hrs
[13] = Toxicity in OVX osteoporotic C57BL/6 mouse assessed as effect on size and surface gloss of heart at 10 mg/kg, ip administered every other day for 8 weeks by H and E staining based analysis; type: organism-based; details: in vivo, 1344 h
BMMC [14] = test: Cytotoxicity against C57BL/6 mouse BMMC cells assessed as reduction in cell viability at 30 uM incubated for 48 hrs by MTT assay; type: toxicity, cell-based
BMMC [15] = test: Effect on total p38 protein expression in RANKL-induced C57BL/6 mouse BMMC cells at 5 uM pretreated for 6 hrs followed by RANKL stimulation and measured upto 60 mins by Western blot analysis; type: functional, cell-based; details: time <= 7.0 hrs
[16] = target: MAP kinase p38 (Mus musculus) (UniProt P47811+O08911+Q9WUI1+Q9Z1B7); test: Inhibition of p38 phosphorylation in RANKL-induced C57BL/6 mouse BMMC cells at 5 uM pretreated for 6 hrs followed by RANKL stimulation and measured upto 60 mins by Western blot analysis; type: cell-based; details: time <= 7.0 hrs
MC3T3-E1 = test: Induction of osteoblast differentiation in mouse MC3T3-E1 cells assessed as bone formation by measuring increase in Runx2 protein expression measured after 7 days by Western blot analysis; type: functional, cell-based; details: dose 2.5-10 µM, time 7.0 day
RAW264.7 [17] = test: Inhibition of RANKL-induced osteoclast differentiation in mouse RAW264.7 cells at 5 uM incubated for 4 days with media replacement for every 2 days by TRAP-staining based light microscopic analysis; type: functional, cell-based; details: time 4.0 day

Chain of c-Jun N-terminal kinase (Mus musculus) (Q61831 whole entry, looked up): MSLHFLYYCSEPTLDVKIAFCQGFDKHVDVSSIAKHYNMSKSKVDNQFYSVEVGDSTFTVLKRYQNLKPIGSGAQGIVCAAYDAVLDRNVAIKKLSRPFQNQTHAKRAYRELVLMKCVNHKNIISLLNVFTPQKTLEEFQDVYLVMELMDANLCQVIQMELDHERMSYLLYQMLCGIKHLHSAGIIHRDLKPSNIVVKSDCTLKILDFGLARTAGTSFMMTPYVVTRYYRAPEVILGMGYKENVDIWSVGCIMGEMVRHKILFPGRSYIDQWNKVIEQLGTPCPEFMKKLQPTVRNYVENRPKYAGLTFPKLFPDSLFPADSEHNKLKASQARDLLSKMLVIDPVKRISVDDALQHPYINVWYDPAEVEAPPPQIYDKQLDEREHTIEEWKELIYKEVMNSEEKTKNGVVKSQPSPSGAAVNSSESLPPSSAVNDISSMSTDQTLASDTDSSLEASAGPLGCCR
Chain of c-Jun N-terminal kinase (Mus musculus) (Q91Y86 whole entry, looked up): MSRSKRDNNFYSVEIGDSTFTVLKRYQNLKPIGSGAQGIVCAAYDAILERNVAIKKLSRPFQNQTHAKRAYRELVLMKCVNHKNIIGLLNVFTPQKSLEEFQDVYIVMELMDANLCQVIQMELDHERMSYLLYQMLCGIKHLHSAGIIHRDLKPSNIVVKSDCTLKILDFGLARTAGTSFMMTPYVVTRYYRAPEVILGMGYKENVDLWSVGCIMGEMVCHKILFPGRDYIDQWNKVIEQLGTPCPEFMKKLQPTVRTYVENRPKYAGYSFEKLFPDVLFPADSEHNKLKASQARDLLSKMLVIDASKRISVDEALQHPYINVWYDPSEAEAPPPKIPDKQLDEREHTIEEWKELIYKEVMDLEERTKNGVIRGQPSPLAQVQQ
Chain of c-Jun N-terminal kinase (Mus musculus) (Q9WTU6 whole entry, looked up): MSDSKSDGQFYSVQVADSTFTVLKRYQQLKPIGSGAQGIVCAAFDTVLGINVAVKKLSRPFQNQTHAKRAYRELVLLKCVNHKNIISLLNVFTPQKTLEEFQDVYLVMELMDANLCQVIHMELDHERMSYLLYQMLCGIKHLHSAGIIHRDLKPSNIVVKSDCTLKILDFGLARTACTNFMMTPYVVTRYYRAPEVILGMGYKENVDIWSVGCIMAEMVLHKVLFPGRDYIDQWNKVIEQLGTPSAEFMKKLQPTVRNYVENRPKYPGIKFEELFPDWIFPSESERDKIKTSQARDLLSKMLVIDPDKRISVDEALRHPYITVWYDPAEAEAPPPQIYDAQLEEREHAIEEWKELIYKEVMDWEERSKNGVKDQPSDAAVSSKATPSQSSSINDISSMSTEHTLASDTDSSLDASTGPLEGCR
Chain of Transcription factor p65 (Mus musculus) (Q04207 whole entry): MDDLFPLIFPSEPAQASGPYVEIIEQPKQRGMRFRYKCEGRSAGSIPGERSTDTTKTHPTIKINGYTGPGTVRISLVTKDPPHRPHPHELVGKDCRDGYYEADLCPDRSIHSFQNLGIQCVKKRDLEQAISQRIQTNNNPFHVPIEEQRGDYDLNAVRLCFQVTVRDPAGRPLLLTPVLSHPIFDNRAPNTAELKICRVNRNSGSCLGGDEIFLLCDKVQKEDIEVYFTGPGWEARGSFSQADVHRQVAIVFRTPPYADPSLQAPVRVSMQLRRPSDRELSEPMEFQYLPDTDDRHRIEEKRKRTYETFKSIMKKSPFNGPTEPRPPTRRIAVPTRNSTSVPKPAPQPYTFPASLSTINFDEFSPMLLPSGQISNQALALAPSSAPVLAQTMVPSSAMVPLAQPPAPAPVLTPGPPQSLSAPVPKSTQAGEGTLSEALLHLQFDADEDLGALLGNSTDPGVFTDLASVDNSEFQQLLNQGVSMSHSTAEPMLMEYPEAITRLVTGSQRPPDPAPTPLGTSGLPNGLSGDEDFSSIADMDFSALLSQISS

inhibition [2]: Active
inhibition [3]: Active
inhibition [5]: Active
inhibition [12]: Active
inhibition [16]: Active
Compound: CC(C)(OCC(F)(F)F)C([Se]c1ccccc1)C(=O)Nc1ccncc1 (stereo not drawn)
Activity (RAW264.7 [1]): Non-Toxic
Activity (BMMC [4]): inactive
Activity (Mus musculus [6]): Active
Activity (Mus musculus [7]): Active
Activity (BMMC [8]): Dose-Dependent Effect
Activity (BMMC [9]): Dose-Dependent Effect
Activity [10]: Non-Toxic
Activity (BMMC [11]): Active
Activity [13]: Non-Toxic
Activity (BMMC [14]): Non-Toxic
Activity (BMMC [15]): inactive
Activity (MC3T3-E1): Dose-Dependent Effect
inhibition (RAW264.7 [17]): Active
